Consider 1 molecule from patent US20220193060A1, “Inhibition of IL-1 Induced Inflammation” (THIOLAB, LLC., priority 2019, published 2022).

The experiment deals with wasp sting. As to the kind of experiment: Case: topical CPDS cream for wasp sting. The format is in vivo, human. To be noted: topical cream containing 2% CPDS by weight. Here is the method:
An individual was stung by a wasp on their hand. […] Application of CPDS cream was repeated after two hours and every 4 hours thereafter. The swelling and redness vanished after 24 hours.

Each structure is given as a SMILES string.

In the case of `O=C(O)c1ccc(SSc2ccc(C(=O)O)cn2)nc1` [CPDS, 6,6′-dithiodinicotinic acid], the “time until swelling and redness vanished” value came out at 24 h. The burning and itching result (person) was “immediate relief”.
